The experiment relates to LX-1 lung xenograft sc, nude mice, tumor weight. The experiment can be described thus: NCI In Vivo Anticancer Drug Screen. Data for tumor model Human Lung LX-1 Xenograft (subcutaneous) in NU/NU Swiss (nude) mice. The settings on record: endpoint: optimum tumor weight change, higher = larger tumour. As for the experimental part:
The antitumor activity of compounds was measured in mice bearing transplantable tumors. Survival or tumor size were measured and the results are expressed as the measurement made in the treated group (T) divided by the measurement made in the vehicle treated control group (C). The tumor model used in this assay is Human Lung LX-1 Xenograft (subcutaneous) in NU/NU Swiss (nude) mice

[1] abbreviates: dose: 6.25 mg/kg/injection, schedule: Q04DX003 (ip), vehicle: Klucel (hydroxypropylcellulose) (HPC).
[2] abbreviates: dose: 12.5 mg/kg/injection, schedule: Q04DX003 (ip), vehicle: Klucel (hydroxypropylcellulose) (HPC).
[3] abbreviates: dose: 6.25 mg/kg/injection, schedule: Q04DX003 (ip), vehicle: saline with Tween-80.
Where [4] appears, read: dose: 12.5 mg/kg/injection, schedule: Q04DX003 (ip), vehicle: saline with Tween-80.
Setting [5] is: dose: 100.0 mg/kg/injection, schedule: Q04DX003 (ip), vehicle: suspension in saline.
Setting [6] is: dose: 400.0 mg/kg/injection, schedule: Q04DX003 (ip), vehicle: saline.
[7] abbreviates: dose: 800.0 mg/kg/injection, schedule: Q04DX003 (ip), vehicle: saline.
The mark [8] stands for this setting: dose: 200.0 mg/kg/injection, schedule: Q04DX003 (ip), vehicle: suspension in saline.
The mark [9] stands for this setting: dose: 400.0 mg/kg/injection, schedule: Q04DX003 (ip), vehicle: suspension in saline.
Setting [10] is: dose: 25.0 mg/kg/injection, schedule: Q04DX003 (ip), vehicle: Klucel (hydroxypropylcellulose) (HPC).
Where [11] appears, read: dose: 100.0 mg/kg/injection, schedule: Q04DX003 (ip), vehicle: Klucel (hydroxypropylcellulose) (HPC).
The mark [12] stands for this setting: dose: 200.0 mg/kg/injection, schedule: Q04DX003 (ip), vehicle: saline.
Where [13] appears, read: dose: 800.0 mg/kg/injection, schedule: Q04DX003 (ip), vehicle: suspension in saline.
Where [14] appears, read: dose: 50.0 mg/kg/injection, schedule: Q04DX003 (ip), vehicle: saline.

Molecules are shown by their SMILES. Several values for one entry are separate records, joined by “and”; a condition that tells them apart may be missing. Identical values can stand only once.

In the case of `CN(CO)c1nc(N(C)CO)nc(N(C)CO)n1`, the T/C (dose: 25.0 mg/kg/injection, schedule: Q01DX005 (ip), vehicle: saline) is 79 % of control and 226 % of control; the T/C (dose: 25.0 mg/kg/injection, schedule: Q04DX005 (ip), vehicle: saline) was 114 % of control; the T/C (dose: 50.0 mg/kg/injection, schedule: Q01DX005 (ip), vehicle: saline) is 59 % of control and 73 % of control; the T/C (dose: 50.0 mg/kg/injection, schedule: Q04DX005 (ip), vehicle: saline) was 79 % of control and 84 % of control; the T/C (dose: 50.0 mg/kg/injection, schedule: Q07DX005 (ip), vehicle: saline) is 29 % of control; the T/C (dose: 100.0 mg/kg/injection, schedule: Q01DX005 (ip), vehicle: saline) is 102 % of control and 122 % of control. For the same compound, the T/C (dose: 100.0 mg/kg/injection, schedule: Q04DX005 (ip), vehicle: saline) was 93 % of control; the T/C (dose: 100.0 mg/kg/injection, schedule: Q07DX005 (ip), vehicle: saline) is 26 % of control and 33 % of control; the T/C (dose: 200.0 mg/kg/injection, schedule: Q01DX005 (ip), vehicle: saline) is -5 % of control; the T/C (dose: 200.0 mg/kg/injection, schedule: Q07DX005 (ip), vehicle: saline) is 49 % of control and 55 % of control.
Turning to `CCC[CH2][Sn]1([CH2]CCC)[O]C2C(CO)OC(n3ccc(N)nc3=O)C2[O]1` (centres undefined), the T/C (dose: 3.13 mg/kg/injection, schedule: Q04DX003 (ip), vehicle: Klucel (hydroxypropylcellulose) (HPC)) is 107 % of control and 108 % of control; the T/C under setting [1] is 197 % of control; the T/C under setting [2] is 77 % of control.
Consider `O=C/C(Cl)=C(/Cl)C(=O)O`, for which the T/C is, setting by setting: (dose: 3.13 mg/kg/injection, schedule: Q04DX003 (ip), vehicle: saline with Tween-80) 112 % of control; under setting [3], 84 % of control; under setting [4], 71 % of control.
For `O=C(NC1CCCCC1)OCc1c(COC(=O)NC2CCCCC2)c(-c2ccc(Cl)c(Cl)c2)n2c1CCC2`, the T/C (dose: 200.0 mg/kg/injection, schedule: Q04DX003 (ip), vehicle: saline with Tween-80) was 89 % of control; the T/C (dose: 400.0 mg/kg/injection, schedule: Q04DX003 (ip), vehicle: saline with Tween-80) is 88 % of control; the T/C (dose: 800.0 mg/kg/injection, schedule: Q04DX003 (ip), vehicle: saline with Tween-80) was 73 % of control.
`CC(CN1CC(=O)NC(=O)C1)N1CC(=O)NC(=O)C1` (centres undefined): the T/C was 70 % of control (dose: 50.0 mg/kg/injection, schedule: Q04DX003 (ip), vehicle: suspension in saline) and 53 % of control under setting [5].
As for `O=Cc1ccc(O)c(O)c1`, the T/C was 91 % of control under setting [4]; 107 % of control (dose: 25.0 mg/kg/injection, schedule: Q04DX003 (ip), vehicle: saline with Tween-80); 114 % of control (dose: 50.0 mg/kg/injection, schedule: Q04DX003 (ip), vehicle: saline with Tween-80).
Consider `COc1ccc2c(NCCCCCCCCNc3c4ccccc4nc4cc(OC)ccc34)c3ccccc3nc2c1`, for which the T/C is, setting by setting: (dose: 0.5 mg/kg/injection, schedule: Q04DX003 (ip), vehicle: distilled water + alcohol) 67 % of control; (dose: 0.5 mg/kg/injection, schedule: Q04DX003 (ip), vehicle: saline) 60 % of control; (dose: 1.0 mg/kg/injection, schedule: Q04DX003 (ip), vehicle: distilled water + alcohol) 45 % of control; (dose: 1.0 mg/kg/injection, schedule: Q04DX003 (ip), vehicle: saline) 61 % of control; (dose: 2.0 mg/kg/injection, schedule: Q04DX003 (ip), vehicle: distilled water + alcohol) 79 % of control; (dose: 2.0 mg/kg/injection, schedule: Q04DX003 (ip), vehicle: saline) 86 % of control. For the same compound, the T/C runs as follows: (dose: 4.0 mg/kg/injection, schedule: Q04DX003 (ip), vehicle: distilled water + alcohol) 45 % of control; (dose: 4.0 mg/kg/injection, schedule: Q04DX003 (ip), vehicle: saline) 65 % of control.
`O=C(O)CP(=O)(O)O`: the T/C was 98 % of control under setting [6]; 90 % of control under setting [7]; 75 % of control (dose: 1600.0 mg/kg/injection, schedule: Q04DX003 (ip), vehicle: saline).
In the case of `O=C[C@@H](CO)O[C@H](C=O)n1cnc2c(=O)[nH]cnc21`, the T/C reads like this: under setting [5], 92 % of control; under setting [8], 73 % of control; under setting [9], 62 % of control.
With `Nc1nc(N)c2cc(CNc3ccc(C(=O)NC(CC(=O)O)CC(=O)O)cc3)ccc2n1`, the T/C is 66 % of control under setting [1], 71 % of control under setting [2] and 78 % of control under setting [10].
Turning to `Oc1cc2c3c(c1)c1cc4c(cc1c[n+]3CC2)OCO4`, the T/C is 78 % of control (dose: 12.5 mg/kg/injection, schedule: Q04DX003 (ip), vehicle: water); 63 % of control (dose: 25.0 mg/kg/injection, schedule: Q04DX003 (ip), vehicle: water); 62 % of control (dose: 50.0 mg/kg/injection, schedule: Q04DX003 (ip), vehicle: water).
With `COc1ccc(C(N)=O)cc1N=NN(C)C`, the T/C (dose: 18.75 mg/kg/injection, schedule: Q04DX003 (ip), vehicle: Klucel (hydroxypropylcellulose) (HPC)) is 60 % of control.
Take `CS(=O)(=O)OCCN(CCOS(C)(=O)=O)c1ccc(C=Nc2ccc(-c3csc(COc4ccccc4)n3)cc2)cc1`: the T/C under setting [11] is 82 % of control.
In the case of `CC(C)CCCCCCCCCCCCC(=O)NCC(=O)NC1C(O)C(O)C(Nc2ncnc3nc[nH]c23)OC1C(O)CO` (centres undefined), the T/C by setting is: (dose: 3.0 mg/kg/injection, schedule: Q04DX003 (ip), vehicle: suspension in saline) 81 % of control; (dose: 12.0 mg/kg/injection, schedule: Q04DX003 (ip), vehicle: suspension in saline) 34 % of control.
For `CNC=O`, the T/C under setting [12] is 64 % of control and 82 % of control and 86 % of control; the T/C under setting [8] is 56 % of control and 67 % of control; the T/C under setting [6] was 38 % of control and 41 % of control and 49 % of control; the T/C under setting [9] was 37 % of control and 57 % of control; the T/C under setting [7] was 12 % of control and 23 % of control; the T/C under setting [13] was 25 % of control and 30 % of control.
Regarding `CC(C)CCCCCCCCCCCCC(=O)NCC(=O)NC1C(C)OC(Nc2ncnc3nc[nH]c23)C(O)C1O` (centres undefined), the T/C under setting [3] is 34 % of control.
On to `COC(OC(CO)C(O)S(=O)(=O)O)C(O)S(=O)(=O)O` (centres undefined), for which the T/C by setting is: under setting [12], 45 % of control; under setting [8], 89 % of control; under setting [9], 82 % of control; under setting [13], 41 % of control.
For the compound `Oc1ccc(O)cc1`, the T/C under setting [14] was 201 % of control.
With `CCOC(=O)C1C2OC(=O)C(C(=O)C2CN(CCCl)CCCl)C1C1CC=C(CC2=CCC(C3C4C(=O)OC(C(CN(CCCl)CCCl)C4=O)C3C(=O)OCC)CC2)CC1` (centres undefined), the T/C by setting is: under setting [10], 58 % of control; (dose: 50.0 mg/kg/injection, schedule: Q04DX003 (ip), vehicle: Klucel (hydroxypropylcellulose) (HPC)) 64 % of control; under setting [11], 55 % of control.
`N=C(N)Sc1ccccn1`: the T/C under setting [14] was 182 % of control.
